Here are results for three compounds from patent publication US20260078120A1, “SUBSTITUTED PYRIDOPYRIMIDINONES” (MIRATI THERAPEUTICS, INC., priority 2022, published 2026).

Bounds are passed on as bounds.

Format in all cases: cell-based
The test system of test [1] is T47D (PI3Kα H1047R mutant) cells. Nature of the test: CellTiter-Glo 2.0 luminescent cell viability assay, 72 hours, T47D cells. To be noted: Homo sapiens, T47D, 72 h, T47D (PI3Kα H1047R mutant) cells, CellTiter-Glo, approximately 72 hours; read-out: T47D (H1047R mutant) Viability IC50. The procedure, abridged: (§1)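 Viability was measured by CellTiter-Glo 2.0 luminescence after approximately 72 h of compound exposure at 37° C. Plating was 1000 cells per well the day before dosing, with ten 1:4 dilutions from a 10 µM top concentration. Values as percent of vehicle were fitted by variable-slope log(inhibitor) regression to give IC50.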
A general note: ATP-based viability assays read luminescence as a measure of living cells.

The test system of test [2] is SKBR3 (PI3Kα wild type) cells. Nature of the test: CellTiter-Glo 2.0 luminescent cell viability assay, 72 hours, SKBR3 cells. To be noted: Homo sapiens, SK-BR-3, 72 h, SKBR3 (PI3Kα wild type) cells, CellTiter-Glo, approximately 72 hours; read-out: SKBR3 (WT) Viability IC50. The procedure, abridged:
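Viability measured via CTG luminescence following roughly 72 hours of compound exposure at 37° C. Dosing used a 10 um starting concentration diluted 1:4 over 10 points; percent-of-vehicle data fitted with a variable-slope four-parameter model for IC50.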

Test [3] concerns T47D (PI3Kα H1047R mutant) cells. Nature of the test: Inhibition of pAKT formation, alphaLISA SureFire Ultra AKT 1/2/3 (pS473), T47D cells. To be noted: Homo sapiens, T47D, T47D (PI3Kα H1047R mutant) cells; inhibition of pAKT (pS473) formation; approximately one hour or 24 hours treatment; read-out: T47D pAKT (H1047R mutant) IC50. The procedure, abridged:
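AKT Ser473 phosphorylation was quantified by alphaLISA SureFire Ultra after roughly 1 h or 24 h compound exposure at 37 °C. Cells were T47D (12,000/well in HBSS), treated with a 10-point 1:4 series starting at 10.4 μM. Percent of control used alpelisib background and DMSO reference, and IC50 came from four-parameter logistic fitting.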

Test [4] relates to MKN1 (PI3Kα E545K mutant) cells. Nature of the test: Inhibition of pAKT formation, alphaLISA SureFire Ultra AKT 1/2/3 (pS473), MKN1 cells. To be noted: Homo sapiens, MKN-1; MKN1 (PI3Kα E545K mutant) cells; inhibition of pAKT (pS473) formation; approximately one hour or 24 hours treatment; read-out: MKN1 (E545K) pAKT IC50. The procedure, abridged:
(§2)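 Cells seeded in HBSS (SKBR3 12,000/well, MKN1 24,000/well) and dosed immediately, 10-point 1:4 series from […], for about 1 h or 24 h at 37 °C. pAKT S473 by alphaLISA after lysis; signal normalised to alpelisib and DMSO controls, IC50 by four-parameter fit.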
A general note: Bead proximity is the source of the signal in Alpha formats.

The subject of test [5] is SKBR3 (PI3Kα wild type) cells. Kind of test: Inhibition of pAKT formation, alphaLISA SureFire Ultra AKT 1/2/3 (pS473), SKBR3 cells. To be noted: Homo sapiens, SK-BR-3; Inhibition of pAKT in SKBR3 (PI3Kα wild type) cells; read-out: SKBR3 (WT) pAKT IC50 (nM) (H1047R mutant) IC50. The procedure, abridged:
as §2

For test [6], the system named is MKN1 (PI3Kα E545K mutant) cells. Nature of the test: CellTiter-Glo 2.0 luminescent cell viability assay, 72 hours, MKN1 cells. To be noted: Homo sapiens, MKN-1; MKN1 (PI3Kα E545K mutant) cells, CellTiter-Glo, approximately 72 hours; read-out: MKN1 (E545K) Viability IC50. The procedure, abridged: as §1

Usually IC50 stands for the point on the concentration scale where inhibition reaches its midpoint.

With `Cc1cc(C(C)Nc2ccccc2C(=O)O)c2nc(C3CCOCC3)cc(=O)n2c1` (stereo not drawn) [Example 9-1, 2-((1-(7-methyl-4-oxo-2-(tetrahydro-2H-pyran-4-yl)-4H-pyrido[1,2-a]pyrimidin-9-yl)ethyl)amino)benzoic acid], the 50% inhibitory concentration (IC50) in test [1] is 2.58 µM; in test [2] it was above 10 µM; in test [3], 0.0212 µM; in test [4], above 10 µM; in test [5], above 10000 nM; in test [6] it was above 10 µM.
For the compound `CC(Nc1ccccc1C(=O)O)c1cccn2c(=O)cc(N3CCC(C)(C)CC3)nc12` (stereo not drawn) [Example 9-2, 2-((1-(2-(4,4-dimethylpiperidin-1-yl)-4-oxo-4H-pyrido[1,2-a]pyrimidin-9-yl)ethyl)amino) benzoic acid], the 50% inhibitory concentration (IC50) was above 10 µM in test [1]; above 10 µM in test [2]; 0.0339 µM in test [3]; above 10 µM in test [4]; above 10000 nM in test [5]; above 10 µM in test [6].
In the case of `Cc1cc(C(C)Nc2ccccc2C(=O)O)c2nc(OCc3ccccc3)cc(=O)n2c1` (stereo not drawn) [Example 9-3, 2-((1-(2-(benzyloxy)-7-methyl-4-oxo-4H-pyrido[1,2-a]pyrimidin-9-yl)ethyl)amino)benzoic acid], the IC50 in test [1] is 4.45 µM; in test [2] it was 4.77 µM; in test [3], 0.129 µM; in test [4] it was above 10 µM; in test [5], above 10000 nM; in test [6] it was 3.78 µM.
